The source of these data is patent publication US9878984B2, “Anti-cancer compounds” (NORTHWESTERN UNIVERSITY, priority 2008, dated 2018).

Entries after “also recorded” stand apart in the source; their conditions may differ.

Holding throughout (format): cell-based, human
One experiment has as its system Chk2. The experiment can be described thus: DNA damage response assay (pThr68-Chk2 / total Chk2 western blot). Conditions: HeLa cells, [GI99%], 20 hr, normalized to mitoxantrone. The procedure:
DNA Damage Response Assay: 250,000 HeLa cells were plated in 35 mm culture dishes and allowed to attach for 8 hr and were then treated with the [GI99%] of each compound for 20 hr (total media volume was […] with 1% DMSO). After treatment cells were lysed in 150 μL detergent buffer containing 1:100 v/v protease inhibitor cocktail (Sigma—St. Louis, Mo.). Lysates were run on denaturing 12% acrylamide gels and transferred to nitrocellulose membranes. The membranes were blocked in blotto, incubated in anti-pThr68-Chk2 antibody (Cell Signaling—Danvers, Mass.) at 1:500 v/v dilution in blotto overnight 4° C., washed, incubated in HRP conjugated anti-rabbit secondary antibody (Jackson) at 1:5,000 v/v dilution in blotto for 1 hr, and then developed. The membranes were then stripped with a reducing buffer, blocked in blotto, incubated in anti-Chk2 antibody (Biolegend—San Diego, Calif.) at 1:500 v/v dilution in blotto overnight at 4° C., washed, incubated in HRP conjugated anti-mouse secondary antibody (Jackson) at 1:5,000 v/v dilution in blotto for 1 hr, and then developed. Membranes were developed with PicoWest Developing Solution (Pierce) and exposed to film. The intensities of bands were quantified as described in the previous section. The data are expressed as the average ratio of pThr68-Chk2 to total Chk2 as normalized to the mitoxantrone control in each of three independent experiments.
Topoisomerase inhibition by most mechanisms should cause activation of DNA damage response pathways because of the production of single and double strand DNA breaks, as is the case with amonafide. […] Therefore, measuring the DNA damage response at a fixed cytotoxic dose ([GI99%]) will determine the extent that DNA damage contributes to the cytotoxicity of these compounds. […] Activation of Chk2 was determined by measuring the ratio of pThr68-Chk2 to total Chk2 in HeLa cells treated with the [GI99%].
Background: A western blot detects proteins with antibodies after separation by electrophoresis.

For experiment [1], the system named is HeLa cells. Put plainly: MTS growth inhibition assay, HeLa cells. To be noted: concentration used in topo II assay. On the procedure:
Cell Culture: HeLa (cervical carcinoma), WI-38 (normal human […] fibroblasts), and MDA-MB-231 (breast carcinoma), cells were cultured in DMEM (Invitrogen—Carlsbad, Calif.) and PC-3M (metastatic prostate carcinoma) cells were cultured in RPMI-1640. Peripheral blood mononuclear cells (PBMCs) were voluntarily collected from a healthy laboratory worker by standard sterile phlebotomy techniques and isolated using Vacutainer CPT collection tubes (BD Biosciences—Bedford, Mass.). PBMCs were isolated freshly for each experiment. All DMEM and RPMI-1640 media was supplemented with 10% FBS (Atlanta Biologicals—Lawrenceville, Ga.) and 100 U/mL penicillin and streptomycin (Invitrogen). HUVEC (Human umbilical vein endothelial cells) were cultured in EGM-2 media with supplements provided in the manufacturers BulletKit (Lonza—Walersville, Md.). All cells were maintained at 37° C. and in a 5% CO2 atmosphere.
Growth Inhibition Assays: HeLa, MDA-MB-231, PC-3M, WI-38, and HUVEC cells were plated at 5,000 cells per well in 96 well plates and allowed to attach for 20 hr (8 hr for HeLa). The media was removed and 198 μL of fresh media was added to each well. […] Cell proliferation was measured at t=0 (time at start of treatment) and t=72 hr using MTS AQueous non-radioactive proliferation assay (Promega—Madison, Wis.). […] The absorbance at 490 nm in each well was read with a Spectramax 250 plate reader (Molecular Devices—Sunnyvale, Calif.). […] Data were fit to one site dose response curves in order to obtain specific growth inhibitory concentrations and the relative standard errors of the mean for these concentrations were calculated by the XLfit4 software. Statistical significance (p value) for the selectivity and all subsequent assays was determined with the two tailed homoscedastic Student's t-test. […]
For orientation: Formazan colour is commonly taken as a measure of viable cells.

Experiment [2] concerns topoisomerase II (topo II). The experiment can be described thus: Topoisomerase II inhibition assay (topo II-DNA cleavable complexes in treated cells). To be noted: HeLa cells, [GI99%], 20 hr, normalized to mitoxantrone.
Procedure: In Vitro Topoisomerase Inhibition: HeLa cells were plated at a density of 1.5 million in 35 mm wells and allowed to attach for 20 hr. They were then treated with each compound at the [GI99%] in 10 mL media for 20 hr. In vitro topoisomerase II inhibition was quantified using TopoGEN's Topoisomerase II In vivo Link Kit according to the protocol included with the kit and according to a previously published protocol [24] with slight modifications. In summary, DNA was isolated from sarkosyl lysed cells, layered on a cesium chloride gradient (total volume ˜7 mL), ultra-centrifuged, and then fractionated to 0.5 mL. The fractions were diluted 1:4 v/v in PBS and the fractions containing the genomic DNA were determined by measuring the absorbance at 260 nm for each fraction. The fractions were then loaded into a slot blotting apparatus and pulled through a nitrocellulose membrane by vacuum. The membrane was blocked in 5% w/v milk in 1×TBST (blotto) for 2 hr, incubated in 1:5,000 v/v topoisomerase II (topo II) primary antibody (TopoGEN) in blotto for 1 hr, washed, and incubated in 1:2,000 v/v HRP conjugated anti-rabbit secondary antibody (Jackson—West Grove, Pa.) in blotto for 45 min, washed and developed with SuperSignal West Pico Chemiluminescent Substrate (Pierce—Rockford, Ill.). The data were processed by dividing the intensity of the 2 or 3 most intense topo II immuno-reactive bands by the amount of DNA in the respective fractions. The band intensity was determined by scanning the developed films with a Kodak Image Station 440 CF and measuring the average pixel intensity of an area slightly larger than each band and subtracting the median background pixel intensity of the perimeter of the same area using Kodak MI software. Etoposide (TopoGEN) and mitoxantrone (Sigma—St. Louis, Mo.) are topo II inhibitors used as positive controls. […] Data were standardized to mitoxantrone in each of three independent experiments. […]
The test system of experiment [3] is HeLa cells. Put plainly: Transwell invasion assay. To be noted: [GI99%], matrigel, 20 hr. On the procedure:
Transwell Invasion Assay: HeLa cells were plated at 250,000 per 35 mm well and allowed to attach for 8 hr. The cells were washed with PBS and then treated for 4 hr with the [GI99%] of each compound (or 1% DMSO—vehicle control) in serum free media to decrease the number of invading cells in the beginning of the experiment due to a preliminary lack of drug exposure. The cells were then trypsinized and counted by trypan blue exclusion with a hemacytometer (Sigma—St. Louis, Mo.). Eight micron pore size control well inserts for 12 well plates (BD Biosciences) were coated with 100 μL 1 mg/mL matrigel (Sigma—St. Louis, Mo.) and allowed to solidify at room temperature for 1 hr. The excess matrigel was aspirated and the inserts were gently washed with PBS. The cells were seeded at a density of 300,000 per insert well in a volume of 500 μL serum free media containing a derivative or vehicle. The inserts were then placed in wells containing 700 μL serum free media with the respective compound. After 20 hr the cells on the top of the membranes were gently removed with a cotton swab, the membranes then were fixed in methanol for 1 min, stained in Gills No. 3 Hematoxylin (Sigma—St. Louis, Mo.) for 5 min, rinsed in tap water, and allowed to dry overnight. The membranes were excised, mounted on slides, and the cells were counted under the 40× objective of a bright field microscope. The data are expressed as the average total number of invading cells counted in 20 fields of each membrane, as standardized to the vehicle control, from six experiments.
Effect of derivatives on the malignant phenotype—invasion assay: If A1-A9 have differential targets, DNA binding specificity, or downstream effects they may differentially alter the malignant behavior of cells. Also, anti-cancer compounds can be efficacious against tumors in other ways besides inhibiting growth and inducing death of cancer cells; they can also alter the behavior of malignant cells. Therefore, the ability of A1-A9 and amonafide to alter the invasive behavior of cancer cells in a transwell (also known as Boyden chamber) invasion assay was evaluated, which determines the ability of cells to migrate through a proteinacious gel. This behavior is considered to be representative of cancer cell invasion through the basement membrane of the primary tumor environment. In this assay, treated cells are seeded on to the top of the matrigel-coated porous membrane, allowed to invade through the proteinacious gel onto the underside of the membrane, and then counted.

Experiment [4] deals with HeLa cells. Put plainly: Perinucleolar compartment (PNC) prevalence reduction. To be noted: [GI50%] for 72 hr. On the procedure: Perinucleolar Compartment (PNC) Reduction: HeLa cells (PNC prevalence ˜85%) were plated 5,000/well in glass bottom 96 well plates and allowed to attach for 8 hr. The cells were then treated with compounds at the respective [GI50%] for 72 hr and [GI99%] for 20 hr for each compound (total media volume was 200 μL/well with 1% DMSO). After treatment cells were immunofluorescently stained as previously described, but with a Texas Red labeled secondary antibody (Jackson) instead of a FITC labeled secondary antibody. PNC prevalence (% of non-apoptotic/non-mitotic cells with 1 or more PNCs) was determined by scoring >200 cells per well with fluorescent microscope (60× objective) and images were acquired with the digital camera and image acquisition software previously mentioned. Scale bar=10 μm. Data are expressed as the average PNC prevalence (% control) of three individual experiments.
The PNC is a unique structural marker that it is only found in malignantly transformed cancer cells, irrespective of tissue origin, and indicates cells that are capable of metastasis. […] Previous studies indicate that the PNC likely conveys a functional metastatic advantage to cancer cells. The PNC prevalence (% of cells with one or more PNC) in human breast cancer positively correlates with the progression of the disease and is always near 100% in distant metastases. […] The PNC prevalence reduction was determined for amonafide and A1-A9 at the respective [GI50%] and [GI99%] doses in HeLa cells, which have a high PNC prevalence of ˜85%.

On to `CCCNc1ccc2c3c(cccc13)C(=O)N(CCN(C)C)C2=O` [A2, 6-propylamino-2-[2-(dimethylamino)ethyl]-1H-benz[de]isoquinoline-1,3(2H)-dione], for which the “DNA damage response (ratio of pThr68-Chk2 to total Chk2)” value in the experiment on Chk2 is given as “evoked the strongest DNA damage response”. In the case of `CC[C@@]1(O)C(=O)OCc2c1cc1n(c2=O)Cc2cc3ccccc3nc2-1` [camptothecin], the “[IC99%]” value in the experiment with HeLa cells [1] turned out to be 0.28 µM. Moreover, the “stabilization of topo II-DNA cleavable complexes” value (shortened to “stabilization”) in experiment [2] is “did not cause the stabilization of topo II-DNA cleavable complexes”. `COc1cc([C@@H]2c3cc4c(cc3[C@@H](O[C@@H]3O[C@@H]5CO[C@@H](C)O[C@H]5[C@H](O)[C@H]3O)[C@H]3COC(=O)[C@H]23)OCO4)cc(OC)c1O` [etoposide]: the “[IC99%]” value with HeLa cells [1] was found to be 9.62 µM. Moreover, the “stabilization” value in experiment [2] is “caused formation of abundant drug stabilized topo II-DNA cleavable complexes”. Turning to `C=CCNc1ccc2c3c(cccc13)C(=O)N(CCN(C)C)C2=O` [A3, 6-allylamino-2-[2-(dimethylamino)ethyl]-1H-benz[de]isoquinoline-1,3(2H)-dione], the “invasive behavior (% invading cells vs vehicle)” value with HeLa cells [3] is on record as “did not significantly alter the invasive behavior of HeLa cells compared to the control”. For the compound `O=C1c2c(O)ccc(O)c2C(=O)c2c(NCCNCCO)ccc(NCCNCCO)c21` [mitoxantrone], the “[IC99%]” value in the experiment on HeLa cells [1] was determined as 1.01 µM. Moreover, in experiment [2], the “stabilization” value is recorded as “caused formation of abundant drug stabilized topo II-DNA cleavable complexes”.

Turning to `CCN(CC)c1ccc2c3c(cccc13)C(=O)N(CCN(C)C)C2=O` [A8, 6-diethylamino-2-[2-(dimethylamino)ethyl]-1H-benz[de]isoquinoline-1,3(2H)-dione], the “invasive behavior (% invading cells vs vehicle)” value in the experiment with HeLa cells [3] is “did not significantly alter the invasive behavior of HeLa cells compared to the control”. With `COCCNc1ccc2c3c(cccc13)C(=O)N(CCN(C)C)C2=O` [A4, 6-methoxyethylamino-2-[2-(dimethylamino)ethyl]-1H-benz[de]isoquinoline-1,3(2H)-dione], the “invasive behavior (% invading cells vs vehicle)” value in the experiment with HeLa cells [3] was “greatly decreases invasion compared to amonafide and control”. Moreover, the “PNC prevalence reduction at [GI50%]” value in the experiment on HeLa cells [4] is recorded as “able effectively reduce the PNC; also recorded: reduces PNC prevalence to the same extent as amonafide; also recorded: can significantly reduce PNC prevalence”.
